Measured values: publication PMC4140855, “Production of an Attenuated Phenol-Soluble Modulin Variant Unique to the MRSA Clonal Complex 30 Increases Severity of Bloodstream Infection” (PLoS Pathogens, 2014)

Tests used:
[1] = tested on: kidneys (hematogenous seeding); assay: Mouse bacteremia (renal abscess) model; assay type: in vivo; conditions: expressed in MRSA252 and 22030, versus isogenic strains expressing non-CC30 PSMα3
Experimental: (A) The MRSA252 strain (252, expressing PSMα3N22Y) was compared to a strain (252*) in which the psmα3 gene was changed to express non-CC30 PSMα3 in a mouse model of blood infection. Hematogenous seeding into the kidneys was measured 4 days after infecting mice via the tail vein with 1×10^7 CFU. Results from kidneys with considerable bacterial numbers (>10^3 CFU) are shown in the graph; the number of kidneys with lower or no bacteria is shown at the bottom. Analysis of significance was performed with the numbers obtained from all kidneys; *, p<0.05. Number of mice used per strain: 10. Two counts per analyzed kidney were performed. (B) Experiment as in (A) with strain 22030 expressing PSMα3N22Y and the isogenic 22030* strain expressing PSMα3. Number of mice used per strain: 20; two counts per analyzed kidney are included; inoculum: 1×10^6. *, p<0.05. (C, D) Tubulointerstitial nephritis with large colonies of bacteria (arrows) in kidneys infected with strain 252, magnification 100× (C) and 200× (D). (E) Absence of signs of infection in kidneys infected with strain 252* (magnification 100×).
For the renal abscess model, S. aureus strains were inoculated from a pre-culture and grown to mid-exponential growth phase (∼2 h), harvested, washed, and diluted with sterile PBS. […]

human neutrophils = conditions: ref [11]; cited from earlier work
Source text: PSMs are short, amphipathic, α-helical peptides with a major impact on S. aureus virulence, [11]. The PSMα peptides of S. aureus in particular cause lysis of a variety of cell types, including neutrophils (or polymorphonuclear leukocytes, PMNs), monocytes, erythrocytes, and osteoblasts [11]–[13]. The rather low target specificity of PSM-mediated cytolysis is due to the fact that lysis is believed to be receptor-independent, [15], which is reflected by the capacity of PSMs to lyse artificial vesicles. In addition, PSMs have pro-inflammatory capacities that are recep ...

| Structure (SMILES) | Capacity to cause sepsis and subsequent complications [1] | Capacity to elicit chemotaxis by neutrophils, relative to other PSMs (human neutrophils) | Pro-inflammatory and cytolytic potency relative to other PSMs of S. aureus (human neutrophils) |
| --- | --- | --- | --- |
| CSCC[C@H](NC=O)C(=O)N[C@@H](CCC(=O)O)C(=O)N[C@@H](Cc1ccccc1)C(=O)N[C@H](C(=O)N[C@@H](C)C(=O)N[C@@H](CCCCN)C(=O)N[C@@H](CC(C)C)C(=O)N[C@@H](Cc1ccccc1)C(=O)N[C@@H](CCCCN)C(=O)N[C@@H](Cc1ccccc1)C(=O)N[C@@H](Cc1ccccc1)C(=O)N[C@@H](CCCCN)C(=O)N[C@@H](CC(=O)O)C(=O)N[C@@H](CC(C)C)C(=O)N[C@@H](CC(C)C)C(=O)NCC(=O)N[C@@H](CCCCN)C(=O)N[C@@H](Cc1ccccc1)C(=O)N[C@@H](CC(C)C)C(=O)NCC(=O)N[C@@H](CC(N)=O)C(=O)N[C@@H](Cc1ccc(O)cc1)C(=O)O)C(C)C [PSMα3N22Y] | increased capacity to cause sepsis and subsequent complications | – | – |
| CSCC[C@H](NC=O)C(=O)N[C@@H](CCC(=O)O)C(=O)N[C@@H](Cc1ccccc1)C(=O)N[C@H](C(=O)N[C@@H](C)C(=O)N[C@@H](CCCCN)C(=O)N[C@@H](CC(C)C)C(=O)N[C@@H](Cc1ccccc1)C(=O)N[C@@H](CCCCN)C(=O)N[C@@H](Cc1ccccc1)C(=O)N[C@@H](Cc1ccccc1)C(=O)N[C@@H](CCCCN)C(=O)N[C@@H](CC(=O)O)C(=O)N[C@@H](CC(C)C)C(=O)N[C@@H](CC(C)C)C(=O)NCC(=O)N[C@@H](CCCCN)C(=O)N[C@@H](Cc1ccccc1)C(=O)N[C@@H](CC(C)C)C(=O)NCC(=O)N[C@@H](CC(N)=O)C(=O)N[C@@H](CC(N)=O)C(=O)O)C(C)C [PSMα3] | – | by far exceeds that of any other PSM of S. aureus | by far most pro-inflammatory and cytolytic PSM of S. aureus |
